Laboratory results: ChEMBL document CHEMBL1137394, “Configurationally restricted bismacrocyclic CXCR4 receptor antagonists” (J Med Chem, 2006)
Activity calls are given as the source filed them. No cut-off for these calls is given here.

Experiments:
[1] = target: C-X-C chemokine receptor type 4 (Homo sapiens) (UniProt P61073); assay: Binding affinity to CXCR4 by flow cell cytometry; assay type: functional
[2] = test system: Human immunodeficiency virus 1; assay: Antiviral activity against HIV1 3B assessed as reduction in cytopathic effect in MT4 cells; assay type: functional, organism-based; settings: Human immunodeficiency virus 1, 3B
[3] = test system: Human immunodeficiency virus 2; assay: Antiviral activity against HIV2 ROD assessed as reduction in cytopathic effect in MT4 cells; assay type: functional, organism-based; settings: Human immunodeficiency virus 2, ROD
MT4 [4] = assay: Cytotoxicity against human MT4 cells; assay type: functional
MT4 [5] = assay: Selectivity index, EC50 against HIV1 3B/CC50 against MT4 cells; assay type: functional, Human immunodeficiency virus 1
MT4 [6] = assay: Selectivity index, EC50 against HIV2 ROD/CC50 against MT4 cells; assay type: functional, Human immunodeficiency virus 2

Sequence of C-X-C chemokine receptor type 4 (Homo sapiens) (P61073 whole entry): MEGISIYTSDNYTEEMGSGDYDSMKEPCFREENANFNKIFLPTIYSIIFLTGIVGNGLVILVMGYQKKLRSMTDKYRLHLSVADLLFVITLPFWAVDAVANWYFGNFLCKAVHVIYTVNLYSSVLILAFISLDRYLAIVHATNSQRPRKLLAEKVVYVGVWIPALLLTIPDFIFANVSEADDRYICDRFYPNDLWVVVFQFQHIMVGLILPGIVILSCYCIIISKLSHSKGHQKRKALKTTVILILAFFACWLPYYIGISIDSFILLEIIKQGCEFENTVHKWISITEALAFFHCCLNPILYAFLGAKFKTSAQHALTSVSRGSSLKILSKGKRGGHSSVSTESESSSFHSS

For `c1cc(CN2CCCN3CCN(CCCNCC2)CC3)ccc1CN1CCCN2CCN(CCCNCC1)CC2`, the Activity [1] was “Active”, the EC50 [2] was 6.98 µM and the EC50 [3] was 23.2 µM. The CC50 (MT4 [4]) was > 225 µM, the Selectivity index (MT4 [5]) was >32 and the Selectivity index (MT4 [6]) was >10.
